{
  "source": "patent US11192894B2",
  "about": "“Cell impermeable coelenterazine analogues” (PROMEGA CORPORATION, priority 2016, dated 2021)",
  "key": {"[1]": {"tested_on": "Nluc-b2 adrenergic receptor (B2AR)", "experiment": "Bioluminescence imaging of Nluc-B2AR in HeLa cells", "type": "cell-based", "conditions": "10 uM substrate, Olympus LV200, FIGS. 4A and 4B", "procedure": "FIGS. 4A and 4B show the results of imaging of Nluc-B2AR in HeLa cells using furimazine and JRW-0769. HeLa cells were reverse transfected with an expression construct for Nluc-b2 adrenergic receptor (B2AR) and plated into a LabTEKII chambered coverslip (50,000 cells per well in 400 uL medium) and incubated overnight. For imaging, the medium was removed and replaced with CO2-independent medium. Immediately before placing the sample onto the imaging instrument, Furimazine or JRW-0769 was added to the cells at a final concentration of 10 uM. Image acquisition was performed on an Olympus LV200 bioluminescence imager using a 40×/0.95 NA objective with electromultiplying gain set to 400 and an acquisition time of 0.5 sec (Furimazine) and 2.5 sec (JRW-0769).\nHeLa cells were reverse transfected with an expression construct for Nluc-b2 adrenergic receptor (B2AR) and plated into a LabTEKII chambered coverslip (50,000 cells per well in 400 uL medium) and incubated overnight. For imaging, the medium was removed and replaced with CO2-independent medium. Immediately before placing the sample onto the imaging instrument, Furimazine or JRW-0769 was added to the cells at a final concentration of 10 uM. […]"}, "[2]": {"molecular_target": "purified NANOLUC® Luciferase (Oplophorus gracilirostris, UniProt Q9GV45, A31E/A60N/A81I/F95D/I117V/K70R/L54V/L99Q/M102K/N193R/P142E/Q151K/Q38R/Q45L/V71I/Y165I)", "sequence (Q9GV45 28-196 with tags or gaps with the stated changes limits assumed)": "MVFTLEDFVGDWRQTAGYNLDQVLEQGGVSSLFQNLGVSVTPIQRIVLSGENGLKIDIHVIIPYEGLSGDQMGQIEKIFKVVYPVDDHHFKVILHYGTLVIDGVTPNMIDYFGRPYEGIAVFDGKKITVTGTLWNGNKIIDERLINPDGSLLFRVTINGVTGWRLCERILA", "type": "biochemical", "conditions": "for RLU at 100 uM: relative value, furimazine set to 1, purified NanoLuc, initial light output three minutes after substrate addition", "procedure": "Each compound to be screened was dissolved in DMSO (5 mM) and then further diluted to 100 uM in NANO-GLO® Luciferase Assay Buffer. Each diluted substrate was then combined in equal volumes with purified NANOLUC® Luciferase diluted into CO2 independent media+10% FBS. Initial light output for each substrate was measured in a GloMax®-Multi+ luminometer three minutes after substrate addition and then at five minute intervals as a means to determine signal half-life. […] Km was calculated using GraphPad Prism using non linear Michaelis-Menten regression."}, "[3]": {"tested_on": "NanoLuc:KDR", "experiment": "Cell-based luciferase assay, HEK293 cells expressing NanoLuc:KDR (NanoLuc on the cell surface), ± extracellular inhibitor JRW-0344", "conditions": "10 μM substrate ± 20 μM inhibitor, FIG. 2A", "procedure": "(§1) FIGS. 2A-2D show extracellular bioluminescent activity of exemplary compounds in HEK293 cells. HEK293 cells were transfected with two different membrane bound NANOLUC® fusions: 1) NanoLuc:KDR, presenting NanoLuc on the outside of the membrane; 2) KDR:NanoLuc, presenting NanoLuc on the inside of the membrane. The cell impermeable NANOLUC® inhibitor JRW-0344 (disclosed in U.S. Ser. No. 15/192,420 to Duellman et al., “THIENOPYRROLE COMPOUNDS AND USES THEREOF,” filed Jun. 24, 2016), was added to the cells to inhibit extracellular bioluminescent activity.\n(§2) HEK293 cells were maintained in DMEM containing 100 IU/ml penicillin, 100 μg/ml streptomycin, and 10% fetal calf serum at 37° C. in 5% CO2. Dulbecco's modified eagle medium (DMEM), Opti-MEM, Penicillin/Streptomycin, and Trypsin-EDTA are purchased from Life Technologies (Carlsbad). Fetal calf serum (FBS) is purchased from HyClone (GE Healthcare). Microtiter plates were purchased from Corning.\n(§3) HEK293 cells were transiently transfected with two different integral membrane NanoLuc fusion proteins: 1) NanoLuc:KDR, presenting NanoLuc on the cell surface; 2) KDR:NanoLuc, presenting NanoLuc in the interior of the cell. After 24 hours, transfected cells were collected, resuspended in OptiM at 200,000 cell/ml and plated into wells of white, 96-well plates at 100 μL/well. For luminescent measurements, cells were treated with the indicated substrates at a final concentration of 10 μM or 20 μM in the presence or absence of 20 μM cell impermeable NanoLuc inhibitor JRW-0344. The luminescent signal was analyzed 3 minutes after substrate addition using a GLOMAX® Discover multimode detection plate reader (Promega)."}, "[4]": {"tested_on": "KDR:NanoLuc", "experiment": "Lytic vs. live cell format, HEK293 cells expressing KDR:NanoLuc", "type": "cell-based", "conditions": "digitonin (lytic) or JRW-0344 (live), FIG. 3C", "procedure": "(§4) FIGS. 3A-D show the activities of cell permeable and cell impermeable compounds at various substrate concentrations. HEK293 cells were transfected (1:100 carrier DNA) with the fusion protein KDR:NanoLuc, which presents membrane bound NanoLuc on the inside of the membrane. Cells were then treated with digitonin (for lytic format) or JRW-0344 (for live cell format). Both sets were treated with varying substrate concentrations to give Michaelis-Menten type plots. […] However, substrates that are cell impermeable (or mostly impermeable) show large differences between live and lytic cell formats (FIG. 3C).\nas §4, with “HEK293” for “FIGS. 3A-D show the activities of cell permeable and cell impermeable compounds at various substrate concentrations. HEK293”, “digitonin to lyse the cell membrane” for “digitonin”, “format) to compare activity of cell permeable and non-cell permeable substrates.” for “format).”"}, "[5]": {"tested_on": "KDR:NanoLuc", "experiment": "Cell-based luciferase assay, HEK293 cells expressing KDR:NanoLuc (NanoLuc in the interior of the cell), ± extracellular inhibitor JRW-0344", "conditions": "HEK293 expressing KDR:Nluc; 10 μM substrate ± 20 μM JRW-0344; FIG. 2C", "procedure": "as §1, §2, §3"}},
  "data": [
    {"smiles": "O=c1c(Cc2ccco2)nc2c(Cc3ccccc3)[nH]c(-c3ccccc3)cn1-2", "note": "[Furimazine, reference compound]", "values": [
      {"measurement": "Localization of the imaged Nluc-B2AR signal", "setting": "[1]", "result": "intracellular Nluc-B2AR"},
      {"measurement": "RLU (absolute light output that is set to 1)", "setting": "[2]; 2.5 ng/mL NanoLuc", "result": "~1.0×10^7 RLU"},
      {"measurement": "RLU at 100 uM", "setting": "[2]", "result": 1}
    ]},
    {"smiles": "O=c1c(Cc2cccc(OCCCCCCS(=O)(=O)[O-])c2)nc2c(Cc3ccccc3)[nH]c(-c3ccccc3)cn1-2.[Na+]", "note": "[JRW-0703, sodium 6-(3-((8-benzyl-3-oxo-6-phenyl-3,7-dihydroimidazo[1,2-a]pyrazin-2-yl)methyl)phenoxy)hexane-1-sulfonate]", "values": [
      {"measurement": "Difference in RLU's in the presence and absence of the extracellular inhibitor", "setting": "[3]", "result": "Larger differences in RLU's"},
      {"measurement": "Lowered activity in the live cell format versus lytic format", "setting": "[4]", "result": 100, "unit": "fold"},
      {"measurement": "RLU at 100 uM", "setting": "[2]", "result": 0.016},
      {"measurement": "RLU and effect of the extracellular inhibitor", "setting": "[5]", "result": "much dimmer and can be inhibited close to background level"}
    ]},
    {"smiles": "O=c1c(Cc2ccc(OCCCCCCS(=O)(=O)[O-])c(Cl)c2)nc2c(Cc3ccccc3)[nH]c(-c3ccccc3)cn1-2.[Na+]", "note": "[JRW-0728, sodium 6-(4-((8-benzyl-3-oxo-6-phenyl-3,7-dihydroimidazo[1,2-a]pyrazin-2-yl)methyl)-2-chlorophenoxy)hexane-1-sulfonate]", "values": [
      {"measurement": "Difference in RLU's in the presence and absence of the extracellular inhibitor", "setting": "[3]", "result": "Larger differences in RLU's"},
      {"measurement": "Lowered activity in the live cell format versus lytic format", "setting": "[4]", "result": 100, "unit": "fold"},
      {"measurement": "RLU at 100 uM", "setting": "[2]", "result": 0.14},
      {"measurement": "RLU and effect of the extracellular inhibitor", "setting": "[5]", "result": "much dimmer and can be inhibited close to background level"}
    ]},
    {"smiles": "O=c1c(Cc2ccc(OCCCCCCS(=O)(=O)[O-])c(F)c2)nc2c(Cc3ccccc3)[nH]c(-c3ccccc3)cn1-2.[Na+]", "note": "[JRW-0769, sodium 6-(4-((8-benzyl-3-oxo-6-phenyl-3,7-dihydroimidazo[1,2-a]pyrazin-2-yl)methyl)-2-fluorophenoxy)hexane-1-sulfonate]", "values": [
      {"measurement": "Difference in RLU's in the presence and absence of the extracellular inhibitor", "setting": "[3]", "result": "Larger differences in RLU's"},
      {"measurement": "Localization of the imaged Nluc-B2AR signal", "setting": "[1]", "result": "limited to membrane-localized receptor"},
      {"measurement": "Lowered activity in the live cell format versus lytic format", "setting": "[4]", "result": 100, "unit": "fold"},
      {"measurement": "RLU at 100 uM", "setting": "[2]", "result": 0.1},
      {"measurement": "RLU and effect of the extracellular inhibitor", "setting": "[5]", "result": "much dimmer and can be inhibited close to background level"}
    ]}
  ]
}
